Measured values taken from US9676732B2, “Ethynyl derivatives” (Hoffmann-La Roche Inc., priority 2013, dated 2017).

Biological target: human mGlu4 receptor (Homo sapiens (Human), UniProt Q14833)
Experiment: Ca2+ mobilization in vitro assay on recombinant human mGlu4 expressed in HEK293 cells (mGlu4 PAM)
Assay type: cell-based
Conditions: for EC50: HEK293 cells stably expressing human mGlu4, L-AP4 added at EC20, read-out: EC50 (nM) mGlu4PAM; for Eff. (%): maximal response in % of the maximal stimulatory effect obtained with saturating concentrations of L-AP4
Description: Determination of EC50 Values Using a Ca2+ Mobilization In Vitro Assay on Recombinant Human mGlu4 Expressed in HEK293 Cells:
A monoclonal HEK-293 cell line stably transfected with a cDNA encoding for the human mGlu4 receptor was generated; for the work with mGlu4 Positive Allosteric Modulators (PAMs), a cell line with low receptor expression levels and low constitutive receptor activity was selected to allow the differentiation of agonistic versus PAM activity. Cells were cultured according to standard protocols (Freshney, 2000) in Dulbecco's Modified Eagle Medium with high glucose supplemented with 1 mM glutamine, 10% (vol/vol) heat-inactivated bovine calf serum, Penicillin/Streptomycin, 50 μg/ml hygromycin and 15 μg/ml blasticidin (all cell culture reagents and antibiotics from Invitrogen, Basel, Switzerland).
About 24 hrs before an experiment, 5×10^4 cells/well were seeded in poly-D-lysine coated, black/clear-bottomed 96-well plates. The cells were loaded with 2.5 μM Fluo-4AM in loading buffer (1×HBSS, 20 mM HEPES) for 1 hr at 37° C. and washed five times with loading buffer. The cells were transferred into a Functional Drug Screening System 7000 (Hamamatsu, Paris, France), and 11 half logarithmic serial dilutions of test compound at 37° C. were added and the cells were incubated for 10-30 min. with on-line recording of fluorescence. Following this pre-incubation step, the agonist (2S)-2-amino-4-phosphonobutanoic acid (L-AP4) was added to the cells at a concentration corresponding to EC20 with on-line recording of fluorescence; in order to account for day-to-day variations in the responsiveness of cells, the EC20 of L-AP4 was determined immediately ahead of each experiment by recording of a full dose-response curve of L-AP4.
Responses were measured as peak increase in fluorescence minus basal (i.e. fluorescence without addition of L-AP4), normalized to the maximal stimulatory effect obtained with saturating concentrations of L-AP4. Graphs were plotted with the % maximal stimulatory using XLfit, a curve fitting program that iteratively plots the data using Levenburg Marquardt algorithm. The single site competition analysis equation used was y=A+((B−A)/(1+((x/C)D))), where y is the % maximal stimulatory effect, A is the minimum y, B is the maximum y, C is the EC50, x is the log 10 of the concentration of the competing compound and D is the slope of the curve (the Hill Coefficient). From these curves the EC50 (drug concentration at which 50% of the maximal receptor activation was achieved), the Hill coefficient as well as the maximal response in % of the maximal stimulatory effect obtained with saturating concentrations of L-AP4 were calculated (see FIG. 1).
A depression of the signal observed after addition of the EC20 concentration of L-AP4 was indicative of an inhibitory activity of the test compound. • FIG. 1: Illustration of the experimental outline for mGlu4 PAM Ca2+ mobilization screening assay and the determination of EC50 and % Emax values.

human mGlu4 receptor, sequence (Q14833 33-912): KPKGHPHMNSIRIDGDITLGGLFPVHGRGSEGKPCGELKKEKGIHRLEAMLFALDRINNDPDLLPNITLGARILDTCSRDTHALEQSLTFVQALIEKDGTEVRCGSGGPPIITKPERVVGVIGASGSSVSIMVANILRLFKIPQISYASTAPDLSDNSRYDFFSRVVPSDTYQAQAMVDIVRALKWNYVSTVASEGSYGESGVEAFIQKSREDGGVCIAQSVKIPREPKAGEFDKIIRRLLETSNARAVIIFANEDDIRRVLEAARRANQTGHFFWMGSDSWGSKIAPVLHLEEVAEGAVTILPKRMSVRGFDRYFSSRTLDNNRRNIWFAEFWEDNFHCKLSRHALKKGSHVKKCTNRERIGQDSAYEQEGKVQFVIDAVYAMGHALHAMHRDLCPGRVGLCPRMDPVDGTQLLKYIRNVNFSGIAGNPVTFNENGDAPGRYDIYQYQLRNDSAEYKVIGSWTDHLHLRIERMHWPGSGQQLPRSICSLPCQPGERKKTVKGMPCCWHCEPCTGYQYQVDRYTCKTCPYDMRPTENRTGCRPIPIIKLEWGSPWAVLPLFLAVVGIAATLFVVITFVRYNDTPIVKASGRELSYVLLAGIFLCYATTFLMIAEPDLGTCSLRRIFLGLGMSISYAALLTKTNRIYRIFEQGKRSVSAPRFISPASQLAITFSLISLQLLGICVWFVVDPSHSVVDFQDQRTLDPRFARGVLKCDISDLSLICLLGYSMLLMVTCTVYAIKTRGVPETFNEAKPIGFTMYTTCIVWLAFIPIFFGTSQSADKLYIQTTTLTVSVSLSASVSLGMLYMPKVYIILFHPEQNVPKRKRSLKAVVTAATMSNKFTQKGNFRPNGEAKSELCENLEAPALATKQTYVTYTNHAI

| Structure (SMILES) | EC50 | Eff. (%) |
| --- | --- | --- |
| Cn1c(=O)n(-c2ccc(C#Cc3ccccc3)cc2Cl)c(=O)c2ccccc21 [Example 1, 3-[2-Chloro-4-(2-phenylethynyl)phenyl]-1-methyl-quinazoline-2,4-dione] | 150 nM | 102% |
| Cc1cccc2c(=O)n(-c3ccc(C#Cc4ccccc4)cc3Cl)c(=O)n(C)c12 [Example 2, 3-[2-Chloro-4-(2-phenylethynyl)phenyl]-1,8-dimethyl-quinazoline-2,4-dione] | 94 nM | 99% |
| Cn1c(=O)n(-c2ccc(C#Cc3ccccc3)cc2Cl)c(=O)c2cccc(Cl)c21 [Example 3, 8-Chloro-3-[2-chloro-4-(2-phenylethynyl)phenyl]-1-methyl-quinazoline-2,4-dione] | 137 nM | 93% |
| Cn1c(=O)n(-c2ccc(C#Cc3ccccc3)cc2Cl)c(=O)c2ccc(Cl)cc21 [Example 4, 7-Chloro-3-[2-chloro-4-(2-phenylethynyl)phenyl]-1-methyl-quinazoline-2,4-dione] | 220 nM | 120% |
| Cc1ccc2c(=O)n(-c3ccc(C#Cc4ccccc4)cc3Cl)c(=O)n(C)c2c1 [Example 5, 3-[2-Chloro-4-(2-phenylethynyl)phenyl]-1,7-dimethyl-quinazoline-2,4-dione] | 93 nM | 108% |
| O=c1[nH]c2ncccc2c(=O)n1-c1ccc(C#Cc2ccccc2)cc1Cl [Example 6, 3-[2-Chloro-4-(2-phenylethynyl)phenyl]-1H-pyrido[2,3-d]pyrimidine-2,4-dione] | 179 nM | 104% |
| Cn1c(=O)n(-c2ccc(C#Cc3ccccc3)cc2Cl)c(=O)c2cccnc21 [Example 7, 3-[2-Chloro-4-(2-phenylethynyl)phenyl]-1-methyl-pyrido[2,3-d]pyrimidine-2,4-dione] | 222 nM | 101% |
| CCc1cccc2c(=O)n(-c3ccc(C#Cc4ccccc4)cc3Cl)c(=O)n(C)c12 [Example 8, 3-[2-Chloro-4-(2-phenylethynyl)phenyl]-8-ethyl-1-methyl-quinazoline-2,4-dione] | 65 nM | 100% |
| Cn1c(=O)n(-c2ccc(C#Cc3ccccc3)cc2Cl)c(=O)c2ncccc21 [Example 9, 3-[2-Chloro-4-(2-phenylethynyl)phenyl]-1-methyl-pyrido[3,2-d]pyrimidine-2,4-dione] | 308 nM | 167% |
| Cn1c(=O)n(-c2ccc(C#Cc3ccccc3)cc2Cl)c(=O)c2cnccc21 [Example 10, 3-[2-Chloro-4-(2-phenylethynyl)phenyl]-1-methyl-pyrido[4,3-d]pyrimidine-2,4-dione] | 399 nM | 180% |
| Cn1cnc2c1c(=O)n(-c1ccc(C#Cc3ccccc3)cc1Cl)c(=O)n2C [Example 11, 1-[2-Chloro-4-(2-phenylethynyl)phenyl]-3,7-dimethyl-purine-2,6-dione] | 175 nM | 122% |
| O=c1c2cccc3c2n(c(=O)n1-c1ccc(C#Cc2ccccc2)cc1Cl)CC3 [Example 12, 2-(2-Chloro-4-(phenylethynyl)phenyl)-5,6-dihydro-1H-pyrrolo[3,2,1-ij]quinazoline-1,3(2H)-dione] | 80 nM | 106% |
| CC(C)n1c(=O)n(-c2ccc(C#Cc3ccccc3)cc2Cl)c(=O)c2ccccc21 [Example 13, 3-[2-Chloro-4-(2-phenylethynyl)phenyl]-1-isopropyl-quinazoline-2,4-dione] | 57 nM | 115% |
| CCn1c(=O)n(-c2ccc(C#Cc3ccccc3)cc2Cl)c(=O)c2ccccc21 [Example 14, 3-[2-Chloro-4-(2-phenylethynyl)phenyl]-1-ethyl-quinazoline-2,4-dione] | 172 nM | 97% |
| Cn1c(=O)n(-c2ccc(C#Cc3ccccc3)cc2Cl)c(=O)c2nccnc21 [Example 15, 3-[2-Chloro-4-(2-phenylethynyl)phenyl]-1-methyl-pteridine-2,4-dione] | 110 nM | 111% |
| O=c1[nH]c2ncncc2c(=O)n1-c1ccc(C#Cc2ccccc2)cc1Cl [Example 16, 3-[2-Chloro-4-(2-phenylethynyl)phenyl]-1H-pyrimido[4,5-d]pyrimidine-2,4-dione] | 152 nM | 98% |
| Cn1c(=O)n(-c2ccc(C#Cc3ccccc3)cc2Cl)c(=O)c2cncnc21 [Example 17, 3-[2-Chloro-4-(2-phenylethynyl)phenyl]-1-methyl-pyrimido[4,5-d]pyrimidine-2,4-dione] | 143 nM | 101% |
| Cn1c(=O)n(-c2ccc(C#Cc3ccccc3)cc2Cl)c(=O)c2cc(F)ccc21 [Example 18, 3-[2-Chloro-4-(2-phenylethynyl)phenyl]-6-fluoro-1-methyl-quinazoline-2,4-dione] | 148 nM | 86% |
| Cn1c(=O)n(-c2ccc(C#Cc3ccccc3)cc2Cl)c(=O)c2ccc(F)c(F)c21 [Example 19, 3-[2-Chloro-4-(2-phenylethynyl)phenyl]-7,8-difluoro-1-methyl-quinazoline-2,4-dione] | 134 nM | 73% |
| Cc1csc2c(=O)n(-c3ccc(C#Cc4ccccc4)cc3Cl)c(=O)n(C)c12 [Example 20, 3-[2-Chloro-4-(2-phenylethynyl)phenyl]-1,7-dimethyl-thieno[3,2-d]pyrimidine-2,4-dione] | 50 nM | 74% |
| CC(C)n1c(=O)n(-c2ccc(C#Cc3ccccc3)cc2Cl)c(=O)c2nccnc21 [Example 21, 3-[2-Chloro-4-(2-phenylethynyl)phenyl]-1-isopropyl-pteridine-2,4-dione] | 52 nM | 89% |
| CC(C)n1c(=O)n(-c2ccc(C#Cc3cccnc3)cc2Cl)c(=O)c2nccnc21 [Example 22, 3-[2-Chloro-4-[2-(3-pyridyl)ethynyl]phenyl]-1-isopropyl-pteridine-2,4-dione] | 167 nM | 88% |
| Cn1c(=O)n(-c2c(F)cc(C#Cc3ccccc3)cc2F)c(=O)c2ccccc21 [Example 23, 3-[2,6-Difluoro-4-(2-phenylethynyl)phenyl]-1-methyl-quinazoline-2,4-dione] | 203 nM | 168% |
| Cc1cccc2c(=O)n(-c3c(F)cc(C#Cc4ccccc4)cc3F)c(=O)n(C)c12 [Example 24, 3-[2,6-Difluoro-4-(2-phenylethynyl)phenyl]-1,8-dimethyl-quinazoline-2,4-dione] | 26 nM | 101% |
| Cn1c(=O)n(-c2c(F)cc(C#Cc3ccccc3)cc2F)c(=O)c2cccnc21 [Example 25, 3-(2,6-Difluoro-4-phenylethynyl-phenyl)-1-methyl-1H-pyrido[2,3-d]pyrimidine-2,4-dione] | 89 nM | 109% |
| Cc1ccc2c(=O)n(-c3c(F)cc(C#Cc4ccccc4)cc3F)c(=O)n(C)c2c1 [Example 26, 3-[2,6-Difluoro-4-(2-phenylethynyl)phenyl]-1,7-dimethyl-quinazoline-2,4-dione] | 115 nM | 108% |
| Cc1csc2c(=O)n(-c3c(F)cc(C#Cc4ccccc4)cc3F)c(=O)n(C)c12 [Example 27, 3-[2,6-Difluoro-4-(2-phenylethynyl)phenyl]-1,7-dimethyl-thieno[3,2-d]pyrimidine-2,4-dione] | 16 nM | 83% |
| Cc1csc2c(=O)n(-c3c(F)cc(C#Cc4cccnc4)cc3F)c(=O)n(C)c12 [Example 28, 3-[2,6-Difluoro-4-[2-(3-pyridyl)ethynyl]phenyl]-1,7-dimethyl-thieno[3,2-d]pyrimidine-2,4-dione] | 29 nM | 86% |
| O=c1c2cccc3c2n(c(=O)n1-c1c(F)cc(C#Cc2ccccc2)cc1F)CC3 [Example 29, 2-(2,6-Difluoro-4-(phenylethynyl)phenyl)-5,6-dihydro-1H-pyrrolo[3,2,1-ij]quinazoline-1,3(2H)-dione] | 52 nM | 78% |
| O=c1c2cccc3c2n(c(=O)n1-c1c(F)cc(C#Cc2cccnc2)cc1F)CC3 [Example 30, 2-(2,6-Difluoro-4-(pyridin-3-ylethynyl)phenyl)-5,6-dihydro-1H-pyrrolo[3,2,1-ij]quinazoline-1,3(2H)-dione] | 91 nM | 89% |
